{"source": "PubChem BioAssay (NCI)", "note": "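Five compound concentrations were applied to cells in 96-well plates for 48 hours; endpoints were derived by simple linear interpolation of the resulting dose-response curve. GI50 marks 50% less growth. The concentration for full growth arrest is given as TGI.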 Where a SMILES comes first, the peptide text is derived from it. [ ]: non-standard residue; d: D form. The star is where a group is joined. Lauroyl = CCCCCCCCCCCC(=O)*; Aib = CC(C)(N)C(=O)O; βAla = NCCC(=O)O"}
{"system": "MDA-MB-468 breast", "assay": "NCI tumour cell line growth inhibition, 48 h", "units": {"GI50": "µM", "TGI": "µM"}}
{"smiles": "NC(=O)/C=C/C(=O)c1c(Cl)cccc1Cl", "GI50": 0.292, "TGI": 0.971}
{"smiles": "COc1cc(Nc2ncccc2C(=O)NCc2cn(Cc3cccc(Oc4ccccc4)c3)nn2)cc(OC)c1", "GI50": 2.42, "TGI": 7.01}
{"smiles": "CCCn1cnc2c(c1=N)C(c1ccc(Cl)cc1)c1sc3c(CC)cccc3c1O2", "note": "(stereo not drawn)", "GI50": 0.508, "TGI": 4.14}
{"smiles": "Nc1nn2cc(F)cnc2c1C(=O)Nc1cncc(F)c1N1CCC(C(=O)N2CCN(C3COC3)CC2)CC1", "GI50": 0.165, "TGI": 0.682}
{"smiles": "COC(=O)c1ccc2c(c1)nc(NC(=O)c1ccccc1)n2CCCc1ccccc1", "GI50": 3.05, "TGI": "> 80"}
{"smiles": "CN1CCN(C2CCN(C(=O)Nc3cc(Oc4ccc(NC(=O)C5(C(=O)Nc6ccc(F)cc6)CC5)c(F)c4)ccn3)CC2)CC1", "GI50": 1.03, "TGI": "> 2.41"}
{"smiles": "Nc1ccc([N+](=O)[O-])cc1N=C/C=C/c1ccccc1", "GI50": 4.68, "TGI": 43}
{"smiles": "c1ccc(-c2nnc(-c3ccccn3)s2)nc1", "GI50": 9.76, "TGI": "> 100"}
{"smiles": "COC(=O)C[C@](O)(CCCC(C)(C)O)C(=O)O[C@@H]1C(OC)=C[C@]23CCCN2CCc2cc4c(cc2[C@H]13)OCO4", "GI50": 0.0102, "TGI": 0.0367}
{"smiles": "COc1ccc(OC)c2c1[nH]c(=O)c1c3ccccc3cn21", "GI50": 1.08, "TGI": 2.55}
{"smiles": "NC(=S)N/N=C/C(=O)O", "GI50": 23.9, "TGI": "> 100"}
{"smiles": "CCN1CCN(C(=O)[C@@]2(C)CC[C@]3(C)CC[C@]4(C)C(=CC(=O)[C@@H]5[C@@]6(C)CC[C@H](OC7C[C@@H](O)[C@@H](O)C(C)O7)C(C)(C)[C@@H]6CC[C@]54C)[C@@H]3C2)CC1", "note": "(stereo partly drawn)", "GI50": 1.49, "TGI": 6.17}
{"smiles": "COc1ccc(/C=C\\[N+](=O)[O-])cc1OC", "GI50": 3.05, "TGI": 11.3}
{"smiles": "C=C(C=O)[C@@H]1CC[C@]2(CO)CC[C@]3(C)[C@H](CC[C@@H]4[C@@]5(C)CCCNC(C)(C)[C@@H]5CC[C@]43C)[C@@H]12", "GI50": 3.77, "TGI": 16.5}
{"smiles": "COc1ccc(Sc2[nH]c(C(C)=O)c3ccccc23)cc1", "GI50": 3.89, "TGI": 41.4}
{"smiles": "CC/C=C\\C[C@H](O)C/C=C1/C(=O)C(Cl)=C[C@@H]1C/C=C\\CCCC(=O)OC", "GI50": 0.554, "TGI": 3.06}
{"smiles": "CCCCCCCCCCCC(=O)NC(C)(C)C(=O)N1CCCC1C(=O)NC(C)(C)C(=O)NC(C)(C)C(=O)N1CCCC1C(=O)NC(C)(C)C(=O)NC(C)(C)C(=O)N1CCCC1C(=O)NC(C)C(=O)NCCC(=O)NC(C)C(=O)NC(C)(C)C(=O)NC(C)(C)C(=O)NC(C)(C)C(=O)NCCC(=O)NC(C)(C)C(=O)NC(C)(C)C(=O)NC(C)(C)C(=O)NC(C)C(=O)NCCC(=O)O", "note": "(stereo not drawn) (Lauroyl-[Aib]P[Aib][Aib]P[Aib][Aib]PA[βAla]A[Aib][Aib][Aib][βAla][Aib][Aib][Aib]A[βAla]-OH; configuration not given here)", "GI50": 0.328, "TGI": 0.739}
{"smiles": "C[N+](C)(C)CC1CCCc2ccccc2C1=O", "note": "(stereo not drawn)", "GI50": 1.91, "TGI": 3.76}
{"smiles": "COc1cc(OCc2cccc(-c3ccc(C(O)c4nccs4)cc3)c2C)cc(OC)c1C=O", "note": "(stereo not drawn)", "GI50": 0.267, "TGI": 2.51}
{"smiles": "CCOC(=O)C1=CN(C)C=C(C(=O)OCC)C1c1cc(Br)c(OCC)c(OC)c1", "GI50": "> 100", "TGI": "> 100"}
{"smiles": "Oc1ccc(Nc2ncnc3c2sc2ncccc23)cc1", "GI50": 0.0751, "TGI": 21}
{"smiles": "COc1cccc(CC(C)=C(c2ccc(OCCN(C)C)cc2)c2ccc(OCCN(C)C)cc2)c1", "GI50": 1.16, "TGI": 5.26}
{"smiles": "O=C(Nc1ccc(Br)cc1F)c1cc(F)ccc1O", "GI50": 1.13, "TGI": 4.92}
{"smiles": "CC1(C)[C@@H](O)CC[C@]2(C)[C@H]3CC[C@@H]4[C@H]5[C@H](C(=O)/C=C\\c6ccccn6)CC[C@]5(O)CC[C@@]4(C)[C@]3(C)CC[C@@H]12", "GI50": 1.4, "TGI": 3.96}
{"smiles": "Cn1cc(C2=C(c3ccc(N)cc3)C(=O)NC2=O)c2ccccc21", "GI50": 7.84, "TGI": "> 25"}
{"smiles": "Cc1ccc(SC2c3ccc(C)cc3Oc3nc(N)c(C#N)c(N)c32)cc1", "note": "(stereo not drawn)", "GI50": 1.77, "TGI": 3.74}
{"smiles": "CC(=O)Nc1ccc(S(=O)(=O)N2C(=O)CCC2C(=O)Nc2ccc(Br)cc2)cc1", "note": "(stereo not drawn)", "GI50": 1.02, "TGI": 5.55}
{"smiles": "Cc1cc(C)c2c(n1)sc1c(Nc3ccc(Cl)cc3)ncnc12", "GI50": 0.0218, "TGI": 27}
{"smiles": "O=C(Nc1ccc(Nc2ccncc2)cc1)c1ccc([N+](=O)[O-])cc1", "GI50": 1.75, "TGI": 5.2}
{"smiles": "CNCc1ccccc1-c1csc([C@@H](C)Nc2nc(C)nc3cc(OC)c(OC)cc23)c1", "GI50": 1.1, "TGI": 2.59}
{"smiles": "N#Cc1c(NC(=O)NCc2ccccc2)sc2c1CCCCC2", "GI50": 0.317, "TGI": 3.52}
{"smiles": "Cc1cc(Cl)cc(OCCn2cc(F)cn2)c1-c1nc(N)nc2c1CN(C(=O)NCC(C)(F)F)C2", "GI50": 0.0361, "TGI": 3.13}
{"smiles": "C#CCOc1cccc(-c2ncc3cc(NC(=O)CCl)ccc3n2)c1", "GI50": 1.74, "TGI": 3.55}
{"smiles": "O=C(O)COc1ccc2c(=O)c3sc4c(=O)c5ccccc5c(=O)c4c3c(=O)c2c1", "GI50": 14.9, "TGI": 35.4}
{"smiles": "CCN(CC)CCC(CNc1ccnc2cc(Cl)ccc12)c1ccc(Cl)cc1", "note": "(stereo not drawn)", "GI50": 0.413, "TGI": 1.52}
{"smiles": "CC1(C)N=C(N)N=C(N)N1c1ccc(CCCCc2ccc(Cl)cc2S(=O)(=O)F)c(Cl)c1", "GI50": 0.569, "TGI": 5.87}
{"smiles": "COc1cccc(F)c1C(=O)c1cnc(NC2CCN(S(C)(=O)=O)CC2)nc1N", "GI50": 3.75, "TGI": 9.91}
{"smiles": "Cn1c(I)c(C#CCO[Si](C)(C)C(C)(C)C)c(=O)[nH]c1=O", "GI50": 1.88, "TGI": 4.33}
{"smiles": "COc1ccccc1/C=N\\N/C(N)=N\\N=C\\c1ccccc1OC", "GI50": 0.613, "TGI": "> 45.7"}
